Source: publication PMC5578999, “Novel quinolone chalcones targeting colchicine-binding pocket kill multidrug-resistant cancer cells by inhibiting tubulin activity and MRP1 function” (Scientific Reports, 2017)

How the values were obtained:
Experiment in all cases: NCI-60 SRB screen
Assay type in all cases: cell-based
[1] = test system: SF-295
Excerpt: (§1) Supplementary Figure l egend
(§2) 10μ M of CTR-20 was used to examine the drug’s efficac y against the NC I-60 cancer cell li nes including: six leukemia cell lines, nine non- small cell lung cancer cell lines, seven color ect al cancer cell lines, six CNS cancer cell lines, nine melanoma cell lines, seven ovari an can cer cell lines, seven ren al can cer cell lines, two prostate cancer cell lines and six breast cancer cell lines. The scr eenin g was car r ied out b y the US National Cancer Institute (NC I) us i n g a sulforhodamine B (SRB) colorimetric assay. […]
(§3) out by the NC I using five different doses of CTR -20.

[2] = test system: SK-MEL-5
Excerpt: as §1, §2, §3

[3] = test system: NCI-H23
Excerpt: as §1, §2, §3

[4] = test system: UACC-257
Excerpt: as §1, §2, §3

[5] = test system: BT-549
Excerpt: as §1, §2, §3

[6] = test system: IGROV1
Excerpt: as §1, §2, §3

[7] = Homo sapiens, read-out: LC50 (the source's name)

COc1ccc2[nH]c(=O)c(/C=C/C(=O)c3ccccc3OC)cc2c1 [CTR-20, (E)-6-Methoxy-3-(3-(2-methoxyphenyl)-3-oxoprop-1-enyl) quinolin-2(1H)-one]
Log10GI50 [1]: -6.28 Molar | Log10LC50 [1]: -4.42 Molar | Log10TGI [1]: -4.92 Molar | TGI [1]: 1.21E-5 Molar | Growth Percent ([1]; 1.00E-5 Molar): 8.29% | GI50 ([1]; Homo sapiens): 0.529 µM | CC50 [1, 7]: 37.6 µM | Percent Growth ([1]; Log10 Concentration -4.0): -93% | Percent Growth ([1]; Log10 Concentration -5.0): 8% | Percent Growth ([1]; Log10 Concentration -6.0): 33% | Percent Growth ([1]; Log10 Concentration -7.0): 93% | Percent Growth ([1]; Log10 Concentration -8.0): 89% | Log10GI50 [2]: -6.14 Molar | Log10LC50 [2]: -5.31 Molar | Log10TGI [2]: -5.68 Molar | TGI [2]: 2.08E-6 Molar | Growth Percent ([2]; 1.00E-5 Molar): 25.21% | GI50 ([2]; Homo sapiens): 0.728 µM | CC50 [2, 7]: 4.93 µM | Percent Growth ([2]; Log10 Concentration -4.0): -98% | Percent Growth ([2]; Log10 Concentration -5.0): -91% | Percent Growth ([2]; Log10 Concentration -6.0): 43% | Percent Growth ([2]; Log10 Concentration -7.0): 96% | Percent Growth ([2]; Log10 Concentration -8.0): 101% | Log10GI50 [3]: -5.88 Molar | Log10LC50 [3]: -4.66 Molar | Log10TGI [3]: -5.41 Molar | TGI [3]: 3.93E-6 Molar | Growth Percent ([3]; 1.00E-5 Molar): 21.29% | GI50 ([3]; Homo sapiens): 1.33 µM | CC50 [3, 7]: 21.6 µM | Percent Growth ([3]; Log10 Concentration -4.0): -64% | Percent Growth ([3]; Log10 Concentration -5.0): -43% | Percent Growth ([3]; Log10 Concentration -6.0): 63% | Percent Growth ([3]; Log10 Concentration -7.0): 87% | Percent Growth ([3]; Log10 Concentration -8.0): 88% | Log10GI50 [4]: -5.86 Molar | Log10LC50 [4]: -5.17 Molar | Log10TGI [4]: -5.52 Molar | TGI [4]: 3.05E-6 Molar | Growth Percent ([4]; 1.00E-5 Molar): 37.62% | GI50 ([4]; Homo sapiens): 1.38 µM | CC50 [4, 7]: 6.75 µM | Percent Growth ([4]; Log10 Concentration -4.0): -100% | Percent Growth ([4]; Log10 Concentration -5.0): -75% | Percent Growth ([4]; Log10 Concentration -6.0): 70% | Percent Growth ([4]; Log10 Concentration -7.0): 101% | Percent Growth ([4]; Log10 Concentration -8.0): 98% | Log10GI50 [5]: -6.41 Molar | Log10LC50 [5]: -4.72 Molar | Log10TGI [5]: -5.62 Molar | TGI [5]: 2.42E-6 Molar | Growth Percent ([5]; 1.00E-5 Molar): 18.91% | GI50 ([5]; Homo sapiens): 0.387 µM | CC50 [5, 7]: 19.2 µM | Percent Growth ([5]; Log10 Concentration -4.0): -97% | Percent Growth ([5]; Log10 Concentration -5.0): -32% | Percent Growth ([5]; Log10 Concentration -6.0): 20% | Percent Growth ([5]; Log10 Concentration -7.0): 93% | Percent Growth ([5]; Log10 Concentration -8.0): 91% | Log10GI50 [6]: -6.24 Molar | Log10LC50 [6]: > -4.00 Molar | Log10TGI [6]: -4.77 Molar | TGI [6]: 1.70E-5 Molar | Growth Percent ([6]; 1.00E-5 Molar): 14.55% | GI50 ([6]; Homo sapiens, IGROV-1): 0.582 µM | CC50 ([6]; Homo sapiens, IGROV-1, read-out: LC50 (the source's name)): > 100 µM | Percent Growth ([6]; Log10 Concentration -4.0): -27% | Percent Growth ([6]; Log10 Concentration -5.0): 8% | Percent Growth ([6]; Log10 Concentration -6.0): 40% | Percent Growth ([6]; Log10 Concentration -7.0): 82% | Percent Growth ([6]; Log10 Concentration -8.0): 99%
